The values that follow come from paper PMC11792066, “Development of benzofuran-derived sulfamates as dual aromatase-steroid sulfatase inhibitors (DASIs): design, synthesis and biological evaluation” (RSC Medicinal Chemistry, 2025).

“And” between values parts separate entries of the source, which are not always exact repeats. Equal entries are not always repeated. Where two headings read alike, the source gives them in different places.

One assay has as its target T1, aromatase (CYP19A1) (Homo sapiens, UniProt P11511).
T1 construct: host or cells: JEG-3 cells
T1 sequence (P11511 1-503): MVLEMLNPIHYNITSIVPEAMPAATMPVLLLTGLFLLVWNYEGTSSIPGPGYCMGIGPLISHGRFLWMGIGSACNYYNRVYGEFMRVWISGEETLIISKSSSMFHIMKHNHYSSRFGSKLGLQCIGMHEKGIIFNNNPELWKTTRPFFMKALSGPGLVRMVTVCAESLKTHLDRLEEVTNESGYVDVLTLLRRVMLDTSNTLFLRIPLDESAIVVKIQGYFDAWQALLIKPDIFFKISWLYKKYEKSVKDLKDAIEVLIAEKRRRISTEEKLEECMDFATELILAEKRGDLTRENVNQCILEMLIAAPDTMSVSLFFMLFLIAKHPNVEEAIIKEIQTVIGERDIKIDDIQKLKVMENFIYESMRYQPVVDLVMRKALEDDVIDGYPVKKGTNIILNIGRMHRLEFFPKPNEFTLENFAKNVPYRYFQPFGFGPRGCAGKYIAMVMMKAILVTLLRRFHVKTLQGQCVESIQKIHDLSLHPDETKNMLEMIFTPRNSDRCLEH
Put plainly: Aromatase activity assay, modified tritiated water assay in JEG-3 cells. It counts as cell-based. Conditions: 1 h incubation, triplicate. The protocol: Seven compounds including the two carbamate side products were investigated for their aromatase inhibitory activity at 10 nM using the previously reported modified tritiated water assay.[20]
(§1) JEG-3 cells (ATCC) were cultured in Eagle's minimal essential medium (EMEM) supplemented with 10% fetal calf serum (FCS). The cells were maintained at 37 °C in a humidified incubator with 5% CO2. Then, the cells were cultured to approximately 80% confluence before any treatments were applied.
The aromatase activity was measured using a modified tritiated water assay. The JEG-3 cells were cultured in six-well plates in EMEM until reaching 80% confluence. The substrate androst-4-ene-3,17-dione [1β-^3H] was added to each well in a serum-free medium. In the presence and absence of dual inhibitors (at concentrations ranging from 0.001 to 10 nM), the cells were incubated at 37 °C for 1 hour. The reaction was stopped by placing the plates on ice for 5 minutes. The medium (500 μL) was obtained, vortexed with 2% dextran-treated charcoal in PBS, and centrifuged at 4000 rpm. [^3H]H2O in the supernatant was quantified using scintillation counting. The aromatase activity was normalized to protein concentration, determined by the Pierce BCA assay kit (Thermo Fisher Scientific), and expressed as pmol of product per mg of protein per hour.

A further assay deals with T2, steroid sulfatase (STS) (Homo sapiens, UniProt P08842).
T2 construct: lysates from JEG-3 cells, known to have high endogenous STS activity; host or cells: JEG-3 cell lysate (supernatant after centrifugation)
T2 sequence (P08842 22-583): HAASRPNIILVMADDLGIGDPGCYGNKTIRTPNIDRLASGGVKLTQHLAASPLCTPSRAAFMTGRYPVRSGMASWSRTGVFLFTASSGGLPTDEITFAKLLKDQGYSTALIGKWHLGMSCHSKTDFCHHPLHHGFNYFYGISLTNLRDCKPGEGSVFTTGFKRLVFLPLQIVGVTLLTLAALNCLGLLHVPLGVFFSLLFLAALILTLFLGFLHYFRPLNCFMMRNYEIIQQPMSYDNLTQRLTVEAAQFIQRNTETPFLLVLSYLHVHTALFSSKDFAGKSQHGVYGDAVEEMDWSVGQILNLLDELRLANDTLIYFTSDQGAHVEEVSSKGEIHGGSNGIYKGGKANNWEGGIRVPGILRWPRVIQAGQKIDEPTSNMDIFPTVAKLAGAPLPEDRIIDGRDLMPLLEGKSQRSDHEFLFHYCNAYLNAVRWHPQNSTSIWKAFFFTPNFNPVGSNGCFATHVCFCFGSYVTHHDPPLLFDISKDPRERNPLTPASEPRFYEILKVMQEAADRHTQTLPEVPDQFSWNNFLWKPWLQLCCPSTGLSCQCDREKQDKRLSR
Put plainly: Steroid sulfatase activity assay, cell-free JEG-3 lysate, [3H]oestrone sulfate substrate. In kind it is biochemical. As to conditions: for IC50: 20 μM E1S, 37 °C, 1 h, triplicate. The protocol: as §1
STS activity was measured using an in vitro, cell-free assay. Briefly, lysates from JEG-3 cells, known to have high endogenous STS activity, were prepared by lysing the cells with a buffer (50 mM Tris-HCl, pH 7.4, and 1 mM EDTA). After centrifugation, the supernatant was collected and protein concentrations were determined using a BCA assay kit.
For the steroid sulfatase assay, 125 μg of JEG-3 lysate was incubated with the substrate [^3H]oestrone sulfate (E1S, 4 × 10^5 dpm) diluted to a final concentration of 20 μM using non-radioactive E1S. The mixture was incubated in the presence of different concentrations of inhibitors (ranging from 10^−11 M to 10^−5 M) at 37 °C for 1 hour. After incubation, the reaction was stopped by placing the tubes on ice, and the estrone product formed was separated from the substrate by extraction with toluene. [^14C]oestrone was added to the organic phase as an internal standard to monitor recovery and procedural losses.
The organic phase was subjected to liquid scintillation counting to measure both ^3H and ^14C. The amount of E1S hydrolysed was calculated from the ^3H counts, corrected for recovery using the ^14C standard, and converted into molar concentrations of hydrolysed product. The inhibitory activity of test compounds was expressed as the IC50 value, representing the concentration required to inhibit 50% of the STS activity.

The mark [1] stands for this setting: JEG-3 cells, read-out: Arom IC50.

Usually IC50 stands for the concentration needed to halve the response being measured. As for `NS(=O)(=O)Oc1ccc(C(c2cc3cc(Cl)ccc3o2)n2cncn2)cc1` (stereo not drawn) [8a, 4-((5-Chlorobenzofuran-2-yl)(1H-1,2,4-triazol-1-yl)methyl)phenyl sulfamate], the IC50 on aromatase (CYP19A1) (setting [1]) is above 10 nM. Also, the “STS inhibitory activity (in words)” value on steroid sulfatase (STS) is recorded as “neither the triazole sulfamates (6, 7, 8a, 9, 10a) nor the triazole carbamates (8b, 10b) displayed STS inhibitory activity”. Regarding `NC(=O)Oc1ccc(C(c2cc3cc(Cl)ccc3o2)n2cncn2)cc1` (stereo not drawn) [8b], inhibition against aromatase (CYP19A1) (Arom IC50, JEG-3 cells) was half-maximal at 4.1 nM (IC50). Also, on steroid sulfatase (STS), the “STS inhibitory activity (in words)” value is “neither the triazole sulfamates (6, 7, 8a, 9, 10a) nor the triazole carbamates (8b, 10b) displayed STS inhibitory activity”. In the case of `N#Cc1ccc(C(c2cc3ccc(OS(N)(=O)=O)cc3o2)n2cncn2)cc1` (stereo not drawn) [10a, 2-((4-Cyanophenyl)(1H-1,2,4-triazol-1-yl)methyl)benzofuran-6-yl sulfamate], at aromatase (CYP19A1) (setting [1]), the IC50 was found to be 1.52 nM. For the same molecule, the “STS inhibitory activity (in words)” value at steroid sulfatase (STS) is listed as “neither the triazole sulfamates (6, 7, 8a, 9, 10a) nor the triazole carbamates (8b, 10b) displayed STS inhibitory activity”. `N#Cc1ccc(C(c2cc3ccc(OC(N)=O)cc3o2)n2cncn2)cc1` (stereo not drawn) [10b, 2-((4-Cyanophenyl)(1H-1,2,4-triazol-1-yl)methyl)benzofuran-6-yl carbamate] registered an IC50 on aromatase (CYP19A1) (Arom IC50, JEG-3 cells) of 0.65 nM. On steroid sulfatase (STS), the “STS inhibitory activity (in words)” value was “neither the triazole sulfamates (6, 7, 8a, 9, 10a) nor the triazole carbamates (8b, 10b) displayed STS inhibitory activity”. In the case of `NS(=O)(=O)Oc1ccc2cc(C(=O)c3ccc(F)cc3)oc2c1` [18a, 2-(4-Fluorobenzoyl)benzofuran-6-yl sulfamate], the IC50 is above 1000 nM on aromatase (CYP19A1) (setting [1]) and 740 nM against steroid sulfatase (STS). In the case of `NS(=O)(=O)Oc1ccc2cc(C(=O)c3ccc(Cl)cc3)oc2c1` [18b, 2-(4-Chlorobenzoyl)benzofuran-6-yl sulfamate], the IC50 is above 1000 nM at aromatase (CYP19A1) (setting [1]) and 410 nM against steroid sulfatase (STS).

Turning to `NS(=O)(=O)Oc1ccc2cc(C(=O)c3ccc(Br)cc3)oc2c1` [18c, 2-(4-Bromobenzoyl)benzofuran-6-yl sulfamate], the IC50 on aromatase (CYP19A1) (setting [1]) is above 1000 nM; against steroid sulfatase (STS), 510 nM. In the case of `NS(=O)(=O)Oc1ccc2cc(C(=O)c3ccc(Cl)cc3Cl)oc2c1` [18d, 2-(2,4-Dichlorobenzoyl)benzofuran-6-yl sulfamate], the IC50 at aromatase (CYP19A1) (setting [1]) is above 1000 nM; at steroid sulfatase (STS) it was 310 nM. Regarding `COc1ccc(C(=O)c2cc3ccc(OS(N)(=O)=O)cc3o2)cc1` [18e, 2-(4-Methoxybenzoyl)benzofuran-6-yl sulfamate], the values for the IC50 at aromatase (CYP19A1) (setting [1]) and at steroid sulfatase (STS) were above 1000 nM and 115 nM, respectively. Consider `N#Cc1ccc(C(=O)c2cc3ccc(OS(N)(=O)=O)cc3o2)cc1` [18f, 2-(4-Cyanobenzoyl)benzofuran-6-yl sulfamate], for which the figures for the concentration for half-maximal inhibition (IC50) on aromatase (CYP19A1) (setting [1]) and against steroid sulfatase (STS) were above 1000 nM and 280 nM, respectively. Turning to `Cc1c(C(=O)c2ccc(F)cc2)oc2cc(OS(N)(=O)=O)ccc12` [19a, 2-(4-Fluorobenzoyl)-3-methylbenzofuran-6-yl sulfamate], the IC50 at aromatase (CYP19A1) (setting [1]) came to 50 nM; at steroid sulfatase (STS), 654 nM. Taken in the same sequence, the figures for `Cc1c(C(=O)c2ccc(Cl)cc2)oc2cc(OS(N)(=O)=O)ccc12` [19b, 2-(4-Chlorobenzoyl)-3-methylbenzofuran-6-yl sulfamate] were 137 nM and 48 nM. For `Cc1c(C(=O)c2ccc(Br)cc2)oc2cc(OS(N)(=O)=O)ccc12` [19c, 2-(4-Bromobenzoyl)-3-methylbenzofuran-6-yl sulfamate] the same measures were 22 nM and 830 nM.

Consider `Cc1c(C(=O)c2ccc(Cl)cc2Cl)oc2cc(OS(N)(=O)=O)ccc12` [19d, 2-(2,4-Dichlorobenzoyl)-3-methylbenzofuran-6-yl sulfamate], for which the results for the IC50 on aromatase (CYP19A1) (setting [1]) and against steroid sulfatase (STS) were 20 nM and 1500 nM, respectively. Take `COc1ccc(C(=O)c2oc3cc(OS(N)(=O)=O)ccc3c2C)cc1` [19e, 2-(4-Methoxybenzoyl)-3-methylbenzofuran-6-yl sulfamate]: the concentration for half-maximal inhibition (IC50) is 35 nM at aromatase (CYP19A1) (setting [1]) and 164 nM against steroid sulfatase (STS). Molecule `N#Cc1ccc(C(c2ccc(C#N)cc2)n2cncn2)cc1` [Letrozole, reference compound] gave an IC50 on steroid sulfatase (STS) above 1000 nM. In the case of `NS(=O)(=O)Oc1ccc2c3c(c(=O)oc2c1)CCCCC3` [STX64, Irosustat, reference compound], on aromatase (CYP19A1) (setting [1]), the IC50 was above 1000 nM. With `NS(=O)(=O)Oc1ccc2cc(C(c3ccc(Cl)cc3)n3cncn3)oc2c1` (stereo not drawn) [compound 6, 2-((4-Chlorophenyl)(1H-1,2,4-triazol-1-yl)methyl)benzofuran-6-yl sulfamate], at aromatase (CYP19A1) (setting [1]), the IC50 is 1.4 nM. For the same molecule, the “STS inhibitory activity (in words)” value on steroid sulfatase (STS) is reported as “neither the triazole sulfamates (6, 7, 8a, 9, 10a) nor the triazole carbamates (8b, 10b) displayed STS inhibitory activity”. For `NS(=O)(=O)Oc1ccc2oc(C(c3ccc(Cl)cc3)n3cncn3)cc2c1` (stereo not drawn) [compound 7, 2-((4-Chlorophenyl)(1H-1,2,4-triazol-1-yl)methyl)benzofuran-5-yl sulfamate], at aromatase (CYP19A1) (setting [1]), the IC50 turned out to be 5.49 nM. The “STS inhibitory activity (in words)” value on steroid sulfatase (STS) was “neither the triazole sulfamates (6, 7, 8a, 9, 10a) nor the triazole carbamates (8b, 10b) displayed STS inhibitory activity”. Consider `NS(=O)(=O)Oc1ccc2cc(C(c3ccc(F)cc3)n3cncn3)oc2c1` (stereo not drawn) [compound 9, 2-((4-Fluorophenyl)(1H-1,2,4-triazol-1-yl)methyl)benzofuran-6-yl sulfamate], for which the IC50 at aromatase (CYP19A1) (setting [1]) was found to be 8.4 nM. Moreover, the “STS inhibitory activity (in words)” value on steroid sulfatase (STS) is listed as “neither the triazole sulfamates (6, 7, 8a, 9, 10a) nor the triazole carbamates (8b, 10b) displayed STS inhibitory activity”. Turning to `NC(=O)Oc1ccc2cc(C(=O)c3ccc(Cl)cc3)oc2c1` [compound 20, 2-(4-Chlorobenzoyl)benzofuran-6-yl carbamate], the IC50 at aromatase (CYP19A1) (setting [1]) was at least 1000 nM; against steroid sulfatase (STS), ≥ 1000 nM and 1220 nM. Turning to `Cc1c(C(=O)c2ccc(Cl)cc2)oc2cc(OC(N)=O)ccc12` [compound 21, 2-(4-Chlorobenzoyl)-3-methylbenzofuran-6-yl carbamate], the IC50 at aromatase (CYP19A1) (setting [1]) was at least 1000 nM; on steroid sulfatase (STS) it was ≥ 1000 nM and 980 nM.
